Among the data in patent US8951964B2, “Phenanthridine macrocyclic hepatitis C serine protease inhibitors” (priority 2010, dated 2015) are EC50 values, retold here.

What all share (type): cell-based, HCV
Assay [1] relates to genotype 1a replicon (1a-H77). Briefly: 1a stable replicon (luciferase reporter). Particulars: Hepatitis C virus, Huh-7, luciferase reporter, HuH-7 cells, 5% FBS. (Replicon systems follow genome replication, usually without infectious particles.)
Assay [2] has as its system genotype 1b replicon (1b-Con1, 1b-N). Briefly: 1b stable replicon (luciferase reporter). The settings on record: Hepatitis C virus, HuH-7 cells, 5% FBS.
In assay [3] the test system is genotype 1a transient replicon (1a-H77). Kind of assay: 1a transient replicon (luciferase reporter). The settings on record: Hepatitis C virus, HuH-7 cells, 5% FBS.
In assay [4] the test system is genotype 1b transient replicon. Briefly: 1b transient replicon (luciferase reporter). Particulars: Hepatitis C virus, HuH-7 cells, 5% FBS.
For assay [5], the system named is genotype 3a NS3 gene in transient replicon. Briefly: 3a transient replicon (luciferase reporter). Particulars: Hepatitis C virus, Huh-7, read-out: 3a transient replicon (nM).

Consider `Cc1cc(C(=O)N[C@H]2CCCCC/C=C\[C@@H]3C[C@@]3(C(=O)NS(=O)(=O)C3CC3)NC(=O)[C@@H]3C[C@@H](Oc4nc5cc(F)c(F)cc5c5ccc(OC(F)(F)F)cc45)CN3C2=O)no1`, for which the EC50 is 500 to 1000 pM in assay [1]; 500 to 1000 pM in assay [2]; less than 100 pM in assay [3]; less than 100 pM in assay [4]; more than 1 nM in assay [5].

Turning to `CC1(S(=O)(=O)NC(=O)[C@@]23C[C@H]2/C=C\CCCCC[C@H](NC(=O)c2ccon2)C(=O)N2C[C@H](Oc4nc5cc(F)ccc5c5ccccc45)C[C@H]2C(=O)N3)CC1`, the EC50 in assay [1] is 100 to 500 pM; in assay [2] it was 100 to 500 pM; in assay [3], less than 100 pM; in assay [4], 100 to 500 pM; in assay [5], 0.5 to 1 nM.

Consider `Cc1cc(C(=O)N[C@H]2CCCCC/C=C\[C@@H]3C[C@@]3(C(=O)NS(=O)(=O)C3(C)CC3)NC(=O)[C@@H]3C[C@@H](Oc4nc5cc(OC(F)(F)F)ccc5c5ccccc45)CN3C2=O)no1`, for which the EC50 is 500 to 1000 pM in assay [1]; 100 to 500 pM in assay [2]; 100 to 500 pM in assay [3]; 100 to 500 pM in assay [4]; more than 1 nM in assay [5].

For the compound `Cc1cc(C(=O)N[C@H]2CCCCC/C=C\[C@@H]3C[C@@]3(C(=O)NS(=O)(=O)C3(C)CC3)NC(=O)[C@@H]3C[C@@H](Oc4nc5cc(F)ccc5c5cc(F)ccc45)CN3C2=O)no1`, the EC50 in assay [1] was 100 to 500 pM; in assay [2] it was 100 to 500 pM; in assay [3], less than 100 pM; in assay [4], 100 to 500 pM; in assay [5], more than 1 nM.

Consider `CC1(S(=O)(=O)NC(=O)[C@@]23C[C@H]2/C=C\CCCCC[C@H](NC(=O)c2ccon2)C(=O)N2C[C@H](Oc4nc5cc(F)ccc5c5cc(F)ccc45)C[C@H]2C(=O)N3)CC1`, for which the EC50 was 100 to 500 pM in assay [1]; 100 to 500 pM in assay [2]; less than 100 pM in assay [3]; less than 100 pM in assay [4]; more than 1 nM in assay [5].

Take `CC1(S(=O)(=O)NC(=O)[C@@]23C[C@H]2/C=C\CCCCC[C@H](NC(=O)c2ccns2)C(=O)N2C[C@H](Oc4nc5cc(F)ccc5c5ccccc45)C[C@H]2C(=O)N3)CC1`: the EC50 in assay [1] is 500 to 1000 pM; in assay [2], 100 to 500 pM; in assay [3], less than 100 pM; in assay [4], 100 to 500 pM; in assay [5] it was more than 1 nM.

As to `Cc1cc(C(=O)N[C@H]2CCCCC/C=C\[C@@H]3C[C@@]3(C(=O)NS(=O)(=O)C3(C)CC3)NC(=O)[C@@H]3C[C@@H](Oc4nc5ccccc5c5ccc(F)cc45)CN3C2=O)no1`, the EC50 in assay [1] is 500 to 1000 pM; in assay [2], 500 to 1000 pM; in assay [3], less than 100 pM; in assay [4], 100 to 500 pM; in assay [5], more than 1 nM.

`COc1ccc2c(c1)c(O[C@@H]1C[C@H]3C(=O)N[C@]4(C(=O)NS(=O)(=O)C5CC5)C[C@H]4/C=C\CCCCC[C@H](NC(=O)c4cc(C)on4)C(=O)N3C1)nc1cc(OC(F)(F)F)ccc12`: the EC50 in assay [1] is 500 to 1000 pM; in assay [2], 100 to 500 pM; in assay [3] it was less than 100 pM; in assay [4], less than 100 pM; in assay [5], 0.5 to 1 nM.

For the compound `Cc1cc(C(=O)N[C@H]2CCCCC/C=C\[C@@H]3C[C@@]3(C(=O)NS(=O)(=O)C3CC3)NC(=O)[C@@H]3C[C@@H](Oc4nc5cccc(F)c5c5ccccc45)CN3C2=O)no1`, the EC50 in assay [1] was 500 to 1000 pM; in assay [2] it was 100 to 500 pM; in assay [3], less than 100 pM; in assay [4], 100 to 500 pM; in assay [5], more than 1 nM.

`Cn1ccc(C(=O)N[C@H]2CCCCC/C=C\[C@@H]3C[C@@]3(C(=O)NS(=O)(=O)C3(C)CC3)NC(=O)[C@@H]3C[C@@H](Oc4nc5cc(OC(F)(F)F)ccc5c5ccccc45)CN3C2=O)n1`: the EC50 in assay [1] is 100 to 500 pM; in assay [2] it was less than 100 pM; in assay [3], less than 100 pM; in assay [4], 100 to 500 pM; in assay [5] it was 0.1 to 0.5 nM.
